Data from PubChem BioAssay (NCI).
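Assay format: 96-well plates, 48-hour exposure. Abbreviation: GI50, concentration required for 50% inhibition of growth. TGI: concentration producing complete growth inhibition.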

Tests used:
Experiment in all cases: DTP human tumour cell line panel, 48 h
NCI-H23 lung = tested on: NCI-H23 lung
SK-MEL-28 melanoma = tested on: SK-MEL-28 melanoma
A498 renal = tested on: A498 renal
SK-MEL-5 melanoma = tested on: SK-MEL-5 melanoma
MALME-3M melanoma = tested on: MALME-3M melanoma
COLO 205 colon = tested on: COLO 205 colon
OVCAR-3 ovarian = tested on: OVCAR-3 ovarian
T-47D breast = tested on: T-47D breast
ACHN renal = tested on: ACHN renal
K-562 leukemia = tested on: K-562 leukemia
RXF 393 renal = tested on: RXF 393 renal
LOX IMVI melanoma = tested on: LOX IMVI melanoma
TK-10 renal = tested on: TK-10 renal
CCRF-CEM leukemia = tested on: CCRF-CEM leukemia
SN12C renal = tested on: SN12C renal
SF-295 CNS = tested on: SF-295 CNS
MDA-MB-435 = tested on: MDA-MB-435
RPMI-8226 leukemia = tested on: RPMI-8226 leukemia
NCI-H460 lung = tested on: NCI-H460 lung
CAKI-1 renal = tested on: CAKI-1 renal
SF-268 CNS = tested on: SF-268 CNS
HOP-62 NSCLC = tested on: HOP-62 NSCLC
OVCAR-4 ovarian = tested on: OVCAR-4 ovarian
NCI-H522 lung = tested on: NCI-H522 lung
PC-3 prostate = tested on: PC-3 prostate
SF-539 CNS = tested on: SF-539 CNS
HCT-15 colon = tested on: HCT-15 colon
DU-145 prostate = tested on: DU-145 prostate
786-0 renal = tested on: 786-0 renal
HOP-92 NSCLC = tested on: HOP-92 NSCLC
HCC-2998 colon = tested on: HCC-2998 colon
HS 578T breast = tested on: HS 578T breast
MDA-MB-231 breast = tested on: MDA-MB-231 breast
MOLT-4 leukemia = tested on: MOLT-4 leukemia
SW-620 colon = tested on: SW-620 colon
OVCAR-8 ovarian = tested on: OVCAR-8 ovarian
OVCAR-5 ovarian = tested on: OVCAR-5 ovarian
UACC-62 melanoma = tested on: UACC-62 melanoma
M14 melanoma = tested on: M14 melanoma
SR leukemia = tested on: SR leukemia
HCT-116 colon = tested on: HCT-116 colon
KM12 colon = tested on: KM12 colon
SNB-19 CNS = tested on: SNB-19 CNS
A549 NSCLC = tested on: A549 NSCLC
U251 CNS = tested on: U251 CNS
SK-MEL-2 melanoma = tested on: SK-MEL-2 melanoma
IGROV1 ovarian = tested on: IGROV1 ovarian
MCF7 breast = tested on: MCF7 breast
HL-60(TB) leukemia = tested on: HL-60(TB) leukemia
HT29 colon = tested on: HT29 colon
SK-OV-3 ovarian = tested on: SK-OV-3 ovarian
SNB-75 CNS = tested on: SNB-75 CNS
EKVX NSCLC = tested on: EKVX NSCLC
BT-549 breast = tested on: BT-549 breast
NCI/ADR-RES ovarian = tested on: NCI/ADR-RES ovarian
UO-31 renal = tested on: UO-31 renal
MDA-MB-468 breast = tested on: MDA-MB-468 breast
UACC-257 melanoma = tested on: UACC-257 melanoma
NCI-H226 lung = tested on: NCI-H226 lung

SMILES: N#Cc1ccc(-c2nn(-c3ccc(C(=O)O)cc3)cc2CNc2cc(Cl)cc(C(F)(F)F)c2)cc1
- GI50 (NCI-H23 lung): 5.19 µM
- TGI (NCI-H23 lung): 19.4 µM
- GI50 (SK-MEL-28 melanoma): 4.6 µM
- TGI (SK-MEL-28 melanoma): 28.3 µM
- GI50 (A498 renal): 15.8 µM
- TGI (A498 renal): 41 µM
- GI50 (SK-MEL-5 melanoma): 3.41 µM
- TGI (SK-MEL-5 melanoma): 13.5 µM
- GI50 (MALME-3M melanoma): 6.44 µM
- TGI (MALME-3M melanoma): 31.9 µM
- GI50 (COLO 205 colon): 14 µM
- TGI (COLO 205 colon): 58.6 µM
- GI50 (OVCAR-3 ovarian): 4.98 µM
- TGI (OVCAR-3 ovarian): 18.6 µM
- GI50 (T-47D breast): 3.8 µM
- TGI (T-47D breast): > 100 µM
- GI50 (ACHN renal): 6.42 µM
- TGI (ACHN renal): 52.7 µM
- GI50 (K-562 leukemia): 3.71 µM
- TGI (K-562 leukemia): > 100 µM
- GI50 (RXF 393 renal): 10.3 µM
- TGI (RXF 393 renal): 24.7 µM
- GI50 (LOX IMVI melanoma): 5.95 µM
- TGI (LOX IMVI melanoma): 20.3 µM
- GI50 (TK-10 renal): 17.2 µM
- TGI (TK-10 renal): > 100 µM
- GI50 (CCRF-CEM leukemia): 4.2 µM
- TGI (CCRF-CEM leukemia): 20.8 µM
- GI50 (SN12C renal): 6.89 µM
- TGI (SN12C renal): 33 µM
- GI50 (SF-295 CNS): 4.79 µM
- TGI (SF-295 CNS): 22.9 µM
- GI50 (MDA-MB-435): 7.05 µM
- TGI (MDA-MB-435): 56.4 µM
- GI50 (RPMI-8226 leukemia): 3.87 µM
- TGI (RPMI-8226 leukemia): 63.5 µM
- GI50 (NCI-H460 lung): 6.67 µM
- TGI (NCI-H460 lung): 21 µM
- GI50 (CAKI-1 renal): 10.2 µM
- TGI (CAKI-1 renal): 45.2 µM
- GI50 (SF-268 CNS): 14.3 µM
- TGI (SF-268 CNS): 67 µM
- GI50 (HOP-62 NSCLC): 11.7 µM
- TGI (HOP-62 NSCLC): 28.3 µM
- GI50 (OVCAR-4 ovarian): 7 µM
- TGI (OVCAR-4 ovarian): > 100 µM
- GI50 (NCI-H522 lung): 3.18 µM
- TGI (NCI-H522 lung): 12.1 µM
- GI50 (PC-3 prostate): 7 µM
- TGI (PC-3 prostate): 35.1 µM
- GI50 (SF-539 CNS): 11.4 µM
- TGI (SF-539 CNS): 24 µM
- GI50 (HCT-15 colon): 3.93 µM
- TGI (HCT-15 colon): 15.8 µM
- GI50 (DU-145 prostate): 11.9 µM
- TGI (DU-145 prostate): > 100 µM
- GI50 (786-0 renal): 14.1 µM
- TGI (786-0 renal): 32 µM
- GI50 (HOP-92 NSCLC): 3.48 µM
- TGI (HOP-92 NSCLC): 15 µM
- GI50 (HCC-2998 colon): 6.46 µM
- TGI (HCC-2998 colon): 19.8 µM
- GI50 (HS 578T breast): 7.95 µM
- TGI (HS 578T breast): 36.1 µM
- GI50 (MDA-MB-231 breast): 12.3 µM
- TGI (MDA-MB-231 breast): 37 µM
- GI50 (MOLT-4 leukemia): 4.26 µM
- TGI (MOLT-4 leukemia): 22.9 µM
- GI50 (SW-620 colon): 9.22 µM
- TGI (SW-620 colon): 25 µM
- GI50 (OVCAR-8 ovarian): 7.28 µM
- TGI (OVCAR-8 ovarian): 27.8 µM
- GI50 (OVCAR-5 ovarian): 18.5 µM
- TGI (OVCAR-5 ovarian): 36 µM
- GI50 (UACC-62 melanoma): 3.64 µM
- TGI (UACC-62 melanoma): 14.4 µM
- GI50 (M14 melanoma): 10.1 µM
- TGI (M14 melanoma): 35.1 µM
- GI50 (SR leukemia): 3.77 µM
- TGI (SR leukemia): > 100 µM
- GI50 (HCT-116 colon): 4.46 µM
- TGI (HCT-116 colon): 17.1 µM
- GI50 (KM12 colon): 5.71 µM
- TGI (KM12 colon): 19.3 µM
- GI50 (SNB-19 CNS): 7.61 µM
- TGI (SNB-19 CNS): 33.7 µM
- GI50 (A549 NSCLC): 7.98 µM
- TGI (A549 NSCLC): 32.1 µM
- GI50 (U251 CNS): 7.26 µM
- TGI (U251 CNS): 32.6 µM
- GI50 (SK-MEL-2 melanoma): 2.96 µM
- TGI (SK-MEL-2 melanoma): 9.48 µM
- GI50 (IGROV1 ovarian): 10.8 µM
- TGI (IGROV1 ovarian): 29.3 µM
- GI50 (MCF7 breast): 5.16 µM
- TGI (MCF7 breast): 26 µM
- GI50 (HL-60(TB) leukemia): 6.31 µM
- TGI (HL-60(TB) leukemia): 31.8 µM
- GI50 (HT29 colon): 13.5 µM
- TGI (HT29 colon): 38.2 µM
- GI50 (SK-OV-3 ovarian): 15.1 µM
- TGI (SK-OV-3 ovarian): 37.9 µM
- GI50 (SNB-75 CNS): 15.5 µM
- TGI (SNB-75 CNS): 45.6 µM
- GI50 (EKVX NSCLC): 5.47 µM
- TGI (EKVX NSCLC): 30.8 µM
- GI50 (BT-549 breast): 11.3 µM
- TGI (BT-549 breast): 31.1 µM
- GI50 (NCI/ADR-RES ovarian): 7.45 µM
- TGI (NCI/ADR-RES ovarian): 26.8 µM
- GI50 (UO-31 renal): 4.34 µM
- TGI (UO-31 renal): 22 µM
- GI50 (MDA-MB-468 breast): 6.83 µM
- TGI (MDA-MB-468 breast): 38.8 µM
- GI50 (UACC-257 melanoma): 7.02 µM
- TGI (UACC-257 melanoma): 40.2 µM
- GI50 (NCI-H226 lung): 10.9 µM
- TGI (NCI-H226 lung): 30.6 µM
